This experiment is described as follows: deodorant efficacy test: odor intensity of incubated sweat rated by expert panel. On the set-up: species or system human. The conditions noted are these: 24 h at 37° C, vs control sweat sample. The protocol: Collections of underarm sweat were taken in a sauna from 6 volunteers; the samples of individual sweat were stored in ice for a few hours and were initially almost odorless. They were mixed together and divided into 1 ml aliquots. The active agents were added to the aliquots, which were then incubated in an oven at 37° C. After incubation for 24 hours, a panel of experts evaluated the intensity of the odor in comparison with a control sample: 1 ml of sweat incubated without an active agent. The intensity was evaluated on a scale ranging from 0 (no odor) to 4 (very strong odor).
The results below are expressed as a percentage of variation of the intensity of the odor in comparison with the control sweat sample (mean of the percentages of variation at T24h).

Consider four compounds from patent US20050180935A1, “Deodorant cosmetic composition comprising a combination of zinc gluconate and an antiperspirant aluminum salt” (priority 2003, published 2005).

On to aluminum chlorohydrate [ACH], for which the “% of reduction in the intensity of the odor” value (“% of reduction” for short) (0.1 mg AM/ml of sweat) is recorded as −37%.

Turning to `Oc1cc(Cl)ccc1Oc1ccc(Cl)cc1Cl` [(B), 2,4,4′-trichloro-2′-hydroxydiphenyl ether], where the note is “0.4 mg AM/ml of sweat”, the “% of reduction” value is listed as −49%. As for zinc gluconate [(A)], the “% of reduction” value (0.5 mg AM/ml of sweat) was −19%. With zinc ricinoleate [(C)], the “% of reduction” value (0.3 mg AM/ml of sweat) was −4%.
